In brackets after ≈: the same amount, converted by molar mass. Like-named read-outs stand apart in the source and are kept apart here.
Experiments:
Format in all cases: cell-based
Escherichia coli, W 3630 = assay: MIC against Escherichia coli W 3630
Proteus rettgeri, ACR = assay: MIC against Proteus rettgeri ACR; conditions: for MIC: Providencia rettgeri
Shigella sonnei E 33 = assay: MIC against Shigella sonnei E 33
Pseudomonas aeruginosa = assay: MIC against Pseudomonas aeruginosa (strain not given)
Escherichia coli, NIHJ = assay: MIC against Escherichia coli NIHJ
[1] = system: Klebsiella pneumoniae, ATCC 10031; assay: MIC against Klebsiella pneumoniae ATCC 10031
[2] = system: Staphylococcus aureus, MS 27; assay: MIC against Staphylococcus aureus MS 27
[3] = system: Staphylococcus aureus, ATCC 6538 P; assay: MIC against Staphylococcus aureus ATCC 6538 P
[4] = system: Salmonella enteritidis gaertner; assay: MIC against Salmonella enteritidis gaertner
[5] = system: Pseudomonas aeruginosa, IAM 1095; assay: MIC against Pseudomonas aeruginosa IAM 1095
Escherichia coli, RGN 14 = assay: MIC against Escherichia coli RGN 14; conditions: Table 3
Enterobacter 0655 = assay: MIC against Enterobacter 0655
Proteus vulgaris, OX 19 = assay: MIC against Proteus vulgaris OX 19; conditions: for minimum inhibitory concentration (MIC): Table 3
[6] = system: Escherichia coli, RGN 238; assay: MIC against Escherichia coli RGN 238; conditions: Table 3
[7] = system: Gram-positive bacteria and Gram-negative bacteria; assay: antimicrobial / bacterium-inhibiting activity (in words)
[8] = Table 1, read-out: minimum inhibitory concentration (MIC)
[9] = Table 3, read-out: minimum inhibitory concentration (MIC)

CC(=O)OCC1=C(C(=O)O)N2C(=O)C(NC(=O)C[S+]([O-])c3cccs3)C2SC1 (single isomer, unassigned) [Comparative Example, 7-(2-thienylsulfinylacetamido)cephalosporanicacid, reference compound]
minimum inhibitory concentration (MIC) (Escherichia coli, W 3630; Table 1): 50 µg/mL (≈ 112 µM) | minimum inhibitory concentration (MIC) (Proteus rettgeri, ACR; Table 1): 100 µg/mL (≈ 225 µM) | minimum inhibitory concentration (MIC) (Shigella sonnei E 33; Table 1): 25 µg/mL (≈ 56.2 µM) | minimum inhibitory concentration (MIC) (Pseudomonas aeruginosa; Table 1): 100 µg/mL (≈ 225 µM) | minimum inhibitory concentration (MIC) (Escherichia coli, NIHJ; Table 1): 6.3 µg/mL (≈ 14.2 µM) | minimum inhibitory concentration (MIC) ([1]; Table 1): 6.3 µg/mL (≈ 14.2 µM) | minimum inhibitory concentration (MIC) ([2]; Table 1, ATCC MS 27): 6.3 µg/mL (≈ 14.2 µM) | minimum inhibitory concentration (MIC) ([3]; Table 1, ATCC 6538 P): 1.6 µg/mL (≈ 3.6 µM) | minimum inhibitory concentration (MIC) ([4]; Table 1): 12.5 µg/mL (≈ 28.1 µM)

CC(=O)OCC1=C(C(=O)O)N2C(=O)C(NC(=O)C[S+]([O-])c3cccs3)C2SC1 (single isomer, unassigned) [Example 1, 7-(2-thienylsulfinylacetamido)cephalosporanic acid]
MIC (Proteus rettgeri, ACR; [8]): 100 µg/mL (≈ 225 µM) | minimum inhibitory concentration (MIC) (Shigella sonnei E 33; Table 1): 3.1 µg/mL (≈ 6.97 µM) | MIC (Pseudomonas aeruginosa; [8]): 100 µg/mL (≈ 225 µM) | minimum inhibitory concentration (MIC) (Escherichia coli, NIHJ; Table 1): 1.6 µg/mL (≈ 3.6 µM) | minimum inhibitory concentration (MIC) ([1]; Table 1): 0.8 µg/mL (≈ 1.8 µM) | minimum inhibitory concentration (MIC) ([2]; Table 1, ATCC MS 27): 1.6 µg/mL (≈ 3.6 µM) | MIC ([3]; ATCC6538, Table 1, ATCC 6538 P, read-out: minimum inhibitory concentration (MIC)): 0.8 µg/mL (≈ 1.8 µM) | minimum inhibitory concentration (MIC) ([4]; Table 1): 1.6 µg/mL (≈ 3.6 µM)

CC(=O)OCC1=C(C(=O)O)N2C(=O)C(NC(=O)C[S+]([O-])c3ccccc3)C2SC1 (single isomer, unassigned) [Example 19, 7-(phenylsulfinylacetamido)cephalosporanic acid]
MIC ([5]; IAM1095, Table 3, read-out: minimum inhibitory concentration (MIC)): 100 µg/mL (≈ 228 µM) | minimum inhibitory concentration (MIC) (Escherichia coli, RGN 14): 12.5 | MIC (Proteus rettgeri, ACR; [9]): 100 µg/mL (≈ 228 µM) | minimum inhibitory concentration (MIC) (Shigella sonnei E 33; Table 3): 6.3 | minimum inhibitory concentration (MIC) (Escherichia coli, NIHJ; Table 3): 1.6 | minimum inhibitory concentration (MIC) ([1]; Table 3): 1.6 | minimum inhibitory concentration (MIC) ([2]; Table 3, MS 27): 0.8 | MIC (Enterobacter 0655; [9]): 100 µg/mL (≈ 228 µM) | minimum inhibitory concentration (MIC) ([3]; Table 3, 6538 P): 0.2 | minimum inhibitory concentration (MIC) (Proteus vulgaris, OX 19): 1.6 | minimum inhibitory concentration (MIC) ([4]; Table 3): 3.2

CC(=O)OCC1=C(C(=O)O)N2C(=O)C(NC(=O)C[S+]([O-])c3ccccc3)C2SC1 (single isomer, unassigned) [comparative product, 7-(Phenylsulfinylacetamido)cephalosporanic acid, reference compound]
minimum inhibitory concentration (MIC) ([5]; Table 3): 100 | minimum inhibitory concentration (MIC) (Escherichia coli, W 3630; Table 3): 100 | minimum inhibitory concentration (MIC) [6]: 100 | minimum inhibitory concentration (MIC) (Escherichia coli, RGN 14): 100 | minimum inhibitory concentration (MIC) (Proteus rettgeri, ACR; Table 3): 100 | minimum inhibitory concentration (MIC) (Shigella sonnei E 33; Table 3): 100 | minimum inhibitory concentration (MIC) (Escherichia coli, NIHJ; Table 3): 100 | minimum inhibitory concentration (MIC) ([1]; Table 3): 50 | minimum inhibitory concentration (MIC) ([2]; Table 3, MS 27): 50 | minimum inhibitory concentration (MIC) (Enterobacter 0655; Table 3): 100 | minimum inhibitory concentration (MIC) ([3]; Table 3, 6538 P): 25 | minimum inhibitory concentration (MIC) (Proteus vulgaris, OX 19): 100 | minimum inhibitory concentration (MIC) ([4]; Table 3): 50

Cc1nnc(SCC2=C(C(=O)O)N3C(=O)C(NC(=O)C[S+]([O-])c4cccs4)[C@H]3SC2)s1 (stereo partly drawn) [Example 3, 7-(2-thienylsulfinylacetamido)-3-(5-methyl-1,3,4-thiadiazol-2-ylthiomethyl)-3-cephem-4-carboxylic acid]
minimum inhibitory concentration (MIC), in words ([7]; versus product similarly derived from the compound of the Comparative Example): much superior

Cn1nnnc1SCC1=C(C(=O)[O-])N2C(=O)C(NC(=O)C[S+]([O-])c3cccs3)[C@H]2SC1.[Na+] (stereo partly drawn) [Example 4, sodium 7-(2-thienylsulfinylacetamido)-3-(1-methyl-1H-tetrazol-5-ylthiomethyl)-3-cephem-4-carboxylate]
bacterium-inhibiting activity ([7]; versus product derived in the same manner from 2-thienylsulfinylacetic acid having [α]D^22° of -9.2°): much superior

O=C(C[S+]([O-])c1cccs1)NC1C(=O)N2C(C(=O)[O-])=C(C[n+]3ccccc3)CSC12 (stereo not drawn) [Example 6, 7-(2-thienylsulfinylacetamido)-3-(1-pyridiniummethyl)-3-cephem-4-carboxylate]
antimicrobial activity [7]: excellent

CC1=C(C(=O)O)N2C(=O)C(NC(=O)C[S+]([O-])c3cccs3)[C@H]2SC1 (stereo partly drawn) [Example 7, 7-(2-thienylsulfinylacetamido)-3-methyl-3-cephem-4-carboxylic acid]
microbial activity ([7]; versus product from 2-thienylsulfinylacetic acid having a negative specific rotary power): much superior

CC(=O)OCC1=C(C(=O)O)N2C(=O)C(NC(=O)C[S+]([O-])c3ccncc3)C2SC1 (stereo not drawn) [Example 10, 7-(4pyridylsulfinylacetamido)cephalosporanic acid]
MIC (Escherichia coli, W 3630; W3630, Table 2): 12.5 µg/mL (≈ 28.4 µM) | MIC (Proteus rettgeri, ACR; Table 2, read-out: MIC): 100 µg/mL (≈ 228 µM) | MIC (Shigella sonnei E 33; Shigella sonnei, E33, Table 2): 6.3 µg/mL (≈ 14.3 µM) | MIC (Escherichia coli, NIHJ; Table 2): 0.8 µg/mL (≈ 1.82 µM) | MIC ([1]; ATCC10031, Table 2): 0.8 µg/mL (≈ 1.82 µM) | MIC ([2]; MS27, Table 2, MS 27): 1.6 µg/mL (≈ 3.64 µM) | MIC ([3]; ATCC6538, Table 2, ATCC 6538 P, read-out: MIC): 0.4 µg/mL (≈ 0.91 µM) | MIC (Proteus vulgaris, OX 19; OX19, Table 2): 1.6 µg/mL (≈ 3.64 µM) | MIC ([4]; Salmonella enterica, ENTERITIDIS, Table 2): 3.2 µg/mL (≈ 7.28 µM)

From patent publication US4245107A, “Cephalosporin derivatives and process for preparing the same” (Asahi Kasei Kogyo Kabushiki Kaisha, priority 1974, dated 1981)
